Data reported in ChEMBL document CHEMBL5625200 (Eur J Med Chem, 2023).

Molecular target: T1, Endothelin-1 receptor (Homo sapiens, UniProt P25101)
T1 sequence (P25101 whole entry): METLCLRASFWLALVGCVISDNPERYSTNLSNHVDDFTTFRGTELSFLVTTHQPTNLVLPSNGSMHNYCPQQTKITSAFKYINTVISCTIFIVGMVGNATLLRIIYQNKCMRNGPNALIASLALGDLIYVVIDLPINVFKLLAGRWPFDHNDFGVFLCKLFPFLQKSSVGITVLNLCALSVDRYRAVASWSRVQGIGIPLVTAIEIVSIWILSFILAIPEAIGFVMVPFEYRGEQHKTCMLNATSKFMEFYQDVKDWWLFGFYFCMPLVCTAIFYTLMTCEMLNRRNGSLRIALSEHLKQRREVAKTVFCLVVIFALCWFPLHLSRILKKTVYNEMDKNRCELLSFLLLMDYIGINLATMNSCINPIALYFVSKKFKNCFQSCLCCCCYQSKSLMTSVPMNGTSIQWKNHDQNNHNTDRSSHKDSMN
Assay: Antagonist activity against human ET-1 by ELISA analysis
Format: functional

Row | Compound | IC50
1 | COc1ccccc1Oc1c(NS(=O)(=O)c2ccc(C)cc2)nc(-c2ncccn2)nc1OCC1CCCN1C (stereo not given) | 3.53 nM
2 | COc1ccccc1Oc1c(NS(=O)(=O)c2ccc(C(C)(C)C)cc2)nc(-c2ncccn2)nc1OCC1CCCN1C (stereo not given) | 1.46 nM
3 | COc1ccccc1Oc1c(NS(C)(=O)=O)nc(-c2ncccn2)nc1OCC(F)F | 0.47 nM
4 | COc1ccccc1Oc1c(NS(=O)(=O)c2ccc(C(C)(C)C)cc2)nc(-c2ncccn2)nc1OCC(F)F | 0.77 nM
5 | COc1ccccc1Oc1c(NS(C)(=O)=O)nc(-c2ncccn2)nc1OCC1CCCN1C (stereo not given) | 2.33 nM
6 | CC#CCOc1nc(-c2ncccn2)nc(NS(=O)(=O)c2ccc(C)cc2)c1Oc1ccccc1OC | 2.99 nM
7 | CC/C=C/CCOc1nc(-c2ncccn2)nc(NS(=O)(=O)c2ccc(C)cc2)c1Oc1ccccc1OC | 3.92 nM
8 | COc1ccccc1Oc1c(NS(=O)(=O)c2ccc(C)cc2)nc(-c2ncccn2)nc1OCC(F)F | 4.76 nM
9 | C=CCCOc1nc(-c2ncccn2)nc(NS(=O)(=O)c2ccc(C)cc2)c1Oc1ccccc1OC | 3.78 nM
10 | COc1ccccc1Oc1c(NS(C)(=O)=O)nc(-c2ncccn2)nc1OCC1CCCN(C)C1 (stereo not given) | 2.01 nM
11 | COc1ccccc1Oc1c(NS(=O)(=O)c2ccc(C(C)(C)C)cc2)nc(-c2ncccn2)nc1OCCC(C)C | 4.78 nM
12 | COc1ccccc1Oc1c(NS(C)(=O)=O)nc(-c2ncccn2)nc1OCC1CC1 | 2.38 nM
13 | COc1ccccc1Oc1c(NS(=O)(=O)c2ccc(C)cc2)nc(-c2ncccn2)nc1OCCC(C)C | 1.39 nM
14 | COc1ccccc1Oc1c(NS(=O)(=O)c2ccc(C(C)(C)C)cc2)nc(-c2ncccn2)nc1OCC1CCCCN1C (stereo not given) | 2.59 nM
15 | COc1ccccc1Oc1c(NS(C)(=O)=O)nc(-c2ncccn2)nc1OCC1CCCCN1C (stereo not given) | 2.21 nM
16 | CC/C=C/CCOc1nc(-c2ncccn2)nc(NS(=O)(=O)c2ccc(C(C)(C)C)cc2)c1Oc1ccccc1OC | 3.99 nM
17 | COc1ccccc1Oc1c(NS(=O)(=O)c2ccc(C(C)(C)C)cc2)nc(-c2ncccn2)nc1OCC1CCCN(C)C1 (stereo not given) | 1.43 nM
18 | C=CCCOc1nc(-c2ncccn2)nc(NS(=O)(=O)c2ccc(C(C)(C)C)cc2)c1Oc1ccccc1OC | 1.24 nM
19 | C=CCCOc1nc(-c2ncccn2)nc(NS(C)(=O)=O)c1Oc1ccccc1OC | 2.41 nM
20 | CC#CCOc1nc(-c2ncccn2)nc(NS(C)(=O)=O)c1Oc1ccccc1OC | 2.13 nM

More lines, now with the values ahead:

Row | IC50 | Compound
21 | 0.88 nM | COc1ccccc1Oc1c(NS(=O)(=O)c2ccccc2)nc(-c2ncccn2)nc1OCC(F)F
22 | 4.33 nM | CC#CCOc1nc(-c2ncccn2)nc(NS(=O)(=O)c2ccccc2)c1Oc1ccccc1OC
23 | 2.44 nM | COc1ccccc1Oc1c(NS(=O)(=O)c2ccccc2)nc(-c2ncccn2)nc1OCC1CC1
24 | 1.73 nM | COc1ccccc1Oc1c(NS(=O)(=O)c2ccccc2)nc(-c2ncccn2)nc1OCCC(C)C
25 | 1.05 nM | COc1ccccc1Oc1c(NS(=O)(=O)c2ccc(C(C)(C)C)cc2)nc(-c2ncccn2)nc1OCC1CCC1
26 | 1.15 nM | COc1ccccc1Oc1c(NS(=O)(=O)c2ccc(C(C)(C)C)cc2)nc(-c2ncccn2)nc1OCC1CCCC1
27 | 2.46 nM | COc1ccccc1Oc1c(NS(=O)(=O)c2ccc(C)cc2)nc(-c2ncccn2)nc1OCC1CCCN(C)C1 (stereo not given)
28 | 2.78 nM | COc1ccccc1Oc1c(NS(=O)(=O)c2ccccc2)nc(-c2ncccn2)nc1OCC1CCCC1
29 | 1.22 nM | COc1ccccc1Oc1c(NS(=O)(=O)c2ccc(C(C)(C)C)cc2)nc(-c2ncccn2)nc1OCC1CC1
30 | 1.62 nM | COc1ccccc1Oc1c(NS(=O)(=O)c2ccc(C)cc2)nc(-c2ncccn2)nc1OCC1CCCC1
31 | 1.91 nM | COc1ccccc1Oc1c(NS(=O)(=O)c2ccccc2)nc(-c2ncccn2)nc1OCC1CCCCN1C (stereo not given)
32 | 3.78 nM | C=CCCOc1nc(-c2ncccn2)nc(NS(=O)(=O)c2ccccc2)c1Oc1ccccc1OC
33 | 1.69 nM | COc1ccccc1Oc1c(NS(C)(=O)=O)nc(-c2ncccn2)nc1OCC1CCC1
34 | 1.84 nM | COc1ccccc1Oc1c(NS(=O)(=O)c2ccccc2)nc(-c2ncccn2)nc1OCC1CCC1
35 | 2.19 nM | COc1ccccc1Oc1c(NS(C)(=O)=O)nc(-c2ncccn2)nc1OCC1CCCC1
36 | 3.22 nM | COc1ccccc1Oc1c(NS(=O)(=O)c2ccc(C)cc2)nc(-c2ncccn2)nc1OCC1CCC1
37 | 1.14 nM | COc1ccccc1Oc1c(NS(=O)(=O)c2ccc(C)cc2)nc(-c2ncccn2)nc1OCC1CCCCN1C (stereo not given)
38 | 1.21 nM | COc1ccccc1Oc1c(NS(=O)(=O)c2ccc(C)cc2)nc(-c2ncccn2)nc1OCC1CC1
39 | 0.97 nM | CC/C=C/CCOc1nc(-c2ncccn2)nc(NS(=O)(=O)c2ccccc2)c1Oc1ccccc1OC
40 | 3.38 nM | COc1ccccc1Oc1c(NS(=O)(=O)c2ccccc2)nc(-c2ncccn2)nc1OCC1CCCN(C)C1 (stereo not given)
